Six compounds from patent US7816523B2, “Potentiators of glutamate receptors” (Eli Lilly and Company, priority 2004, dated 2010) can be followed below.

The target in one series is T1, human mGlu2 receptors (Homo sapiens, UniProt Q14416).
T1 construct: expressed in transfected cells; host or cells: RGT cells (co-transfected with the glutamate/aspartate transporter GLAST and stably transfected with Galpha15)
The experiment in a line: Potentiation of glutamate-induced increase in intracellular calcium with a mGlu2 expressing cell line (FLIPR). Format: cell-based. Conditions: with submaximal glutamate-site agonist (e.g. 1 μM glutamate). How it is done: Potentiation of Glutamate-Induced Increase in Intracellular Calcium with a mGlu2 Expressing Cell Line
Cell lines expressing human mGlu2 receptors are derived as previously described (Desai, Burnett, Mayne, Schoepp, Mol. Pharmacol. 48, 648-657, 1995) and cultured in DMEM with 5% dialyzed fetal bovine serum, 1 mM glutamine, 1 mM sodium pyruvate, 50 μg/mL Geneticin G418, and 0.2 mg/mL hygromycin B. Confluent cultures are passaged weekly. These cells are referred to as RGT cells for Rat Glutamate Transporter, and have been co-transfected with the glutamate/aspartate transporter GLAST. The RGT cell line expressing the mGlu2 receptors is stably transfected with the promiscuous G-protein, Galpha15 to change the signaling pathway to the mGlu2 receptor to one that could be easily measured through release of intracellular calcium. Thus, intracellular calcium levels are monitored before and after the addition of drugs on a Fluorometric Imaging Plate Reader (i.e. FLIPR, Molecular Devices). The following buffer is used throughout as an assay buffer: 10 mM KCl, 138 mM NaCl, 5 mM Ca Cl2, 1 mM MgCl2, 4 mM Na H2PO4, 10 mM Glucose, 10 mM HEPES, pH 7.4. Cells that had been plated 48 hours prior at a density of 30-40,000 cells per well in a 96-well plate are loaded with a calcium-sensitive dye for 90 minutes at 25° C. Fluo-3 (2 mM in DMSO, Molecular Probes) are mixed with a equal volume of 10% pluronic acid in DMSO, and diluted to 8 μM into the buffer described above containing 10% fetal bovine serum to make the loading buffer. Following loading of the cells, the loading buffer is removed and replaced with assay buffer prior to drug addition and monitoring on the FLIPR. The resulting signal from the addition of compounds of formula (I) and submaximal concentrations of a glutamate-site agonist (e.g. 1 μM glutamate) is determined by taking the difference of the maximal fluorescent peak height minus the background fluorescence in each well and expressing the results as a percent of the signal seen with a maximal glutamate response (30 μM glutamate, typically about 30-50,000 Relative Fluorescent Units). Least squares curve fitting with a four-parameter equation is then applied to the resulting dose-% response curve to determine the resulting EC50 values.

Another series addresses T2, human CysLT1 receptor (Homo sapiens, UniProt Q9Y271).
T2 construct: expressed in transfected cells; host or cells: AV12-664 (ATCC-9595)
T2 sequence (Q9Y271 1-337): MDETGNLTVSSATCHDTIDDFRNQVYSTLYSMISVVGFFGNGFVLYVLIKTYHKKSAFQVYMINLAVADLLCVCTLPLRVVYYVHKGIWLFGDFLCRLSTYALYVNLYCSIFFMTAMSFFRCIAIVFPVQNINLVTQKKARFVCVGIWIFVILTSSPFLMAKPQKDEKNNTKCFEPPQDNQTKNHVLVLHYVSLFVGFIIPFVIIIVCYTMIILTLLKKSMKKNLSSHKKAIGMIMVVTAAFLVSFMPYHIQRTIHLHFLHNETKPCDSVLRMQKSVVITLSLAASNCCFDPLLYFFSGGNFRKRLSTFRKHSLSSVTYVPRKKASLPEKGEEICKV
The experiment in a line: Antagonism of LTD4-induced increase in intracellular calcium within a CysLT1 receptor expressing cell line (FLIPR). Format: cell-based. To be noted: 6 nM LTD4; read-out: antagonism of CysLT1 receptors, IC50. How it is done:
Antagonism of Cysteinyl-leukotriene D4 (LTD4) -Induced Increase in Intracellular Calcium within a Cysteinyl-Leukotriene 1 (CysLT1) Receptor Expressing Cell Line
Cell lines expressing the human CysLT1 receptor [AV12-664 (ATCC-9595)] are derived and maintained in culture media: DMEM with 5% dialyzed fetal bovine serum, 1 mM glutamine, and 1 mM sodium pyruvate. Confluent cultures are passaged weekly. Intracellular calcium levels are monitored in the CysLT1-expressing cells with the addition of LTD4, with or without prior exposure to the compounds being tested as antagonists with a Fluorometric Imaging Plate Reader (FLIPR, Molecular Devices). The following buffer is used throughout as an assay buffer: Hanks Buffered Saline Solution without phenol red (GIBCO), with 10 mM HEPES pH 7.4. Cells that had been plated 48 hours prior at a density of 20-25,000 cells per well in a 96-well plate are loaded with a calcium-sensitive dye for 90 minutes at 25° C. Fluo-3 (2 mM in DMSO, Molecular Probes) is mixed with an equal volume of 10% pluronic acid in DMSO, and diluted to 8 μM in the buffer described above containing 10% fetal bovine serum to make the loading buffer. Following loading of the cells, the buffer is removed and replaced with assay buffer prior to drug addition and monitoring on the FLIPR for several minutes. The resulting signal from the addition of 6 nM LTD4 (provides approximately 90% of the maximal signal with 25 nM LTD4) is determined by taking the difference of the maximal fluorescent peak height minus the background fluorescence in each well and expressing the results as a percent of the signal seen without pretreatment of the test compound(s). Least squares curve fitting with a four-parameter equation is applied to the resulting dose-% inhibition curve to determine the resulting IC50 values.

T1 sequence (Q14416 19-872): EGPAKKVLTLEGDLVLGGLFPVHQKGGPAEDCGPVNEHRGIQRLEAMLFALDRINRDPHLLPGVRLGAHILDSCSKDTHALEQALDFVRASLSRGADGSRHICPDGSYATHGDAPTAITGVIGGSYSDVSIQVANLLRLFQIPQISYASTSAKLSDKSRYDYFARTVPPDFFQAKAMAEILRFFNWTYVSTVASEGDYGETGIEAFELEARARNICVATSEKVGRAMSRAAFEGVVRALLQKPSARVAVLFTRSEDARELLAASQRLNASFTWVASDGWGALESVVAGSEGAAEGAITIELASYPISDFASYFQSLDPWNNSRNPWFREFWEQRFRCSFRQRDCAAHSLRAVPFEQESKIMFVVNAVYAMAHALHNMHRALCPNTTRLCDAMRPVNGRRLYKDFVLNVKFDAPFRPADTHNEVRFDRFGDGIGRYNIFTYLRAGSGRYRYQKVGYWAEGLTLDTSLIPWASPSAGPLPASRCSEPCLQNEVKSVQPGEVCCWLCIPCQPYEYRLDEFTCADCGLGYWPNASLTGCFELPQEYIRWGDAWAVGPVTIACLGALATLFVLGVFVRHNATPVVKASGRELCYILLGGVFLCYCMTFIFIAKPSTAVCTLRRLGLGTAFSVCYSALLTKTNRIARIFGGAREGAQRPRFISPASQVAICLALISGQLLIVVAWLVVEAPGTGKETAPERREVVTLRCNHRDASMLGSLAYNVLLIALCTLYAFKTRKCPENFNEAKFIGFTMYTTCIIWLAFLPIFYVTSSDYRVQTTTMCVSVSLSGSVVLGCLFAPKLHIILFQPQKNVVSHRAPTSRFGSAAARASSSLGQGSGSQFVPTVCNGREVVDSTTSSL

With `CC(=O)c1ccc(OCc2ccc(Cc3cccc(C(=O)O)c3)cc2)c(Cl)c1O` [Example 65, 3-[4-(4-Acetyl-2-chloro-3-hydroxy-phenoxymethyl)-benzyl]-benzoic acid], the EC50 on human mGlu2 receptors is less than 100 nM. For the same compound, the IC50 at human CysLT1 receptor is less than 750 nM.

As for `CCCc1c(OCc2ccc(C(O)c3cccc(C(=O)O)c3)cc2)ccc(C(C)=O)c1O` (single isomer, unassigned; isomer 1) [Example 83, (+)-3-{[4-(4-Acetyl-3-hydroxy-2-propyl-phenoxymethyl)-phenyl]-hydroxy-methyl}-benzoic acid isomer 1], the concentration for a half-maximal effect (EC50) on human mGlu2 receptors was less than 100 nM. Also, the IC50 at human CysLT1 receptor is less than 750 nM.

In the case of `CCCc1c(OCc2ccc(C(O)c3ccc(OC)c(-c4nnn[nH]4)c3)cc2)ccc(C(C)=O)c1O` (stereo not shown) [Example 47, 1-[2-hydroxy-4-(4-{hydroxy-[4-methoxy-3-(2H-tetrazol-5-yl)-phenyl]-methyl}-benzyloxy)-3-propyl-phenyl]-ethanone], the EC50 on human mGlu2 receptors was less than 100 nM. For the same compound, on human CysLT1 receptor, the half-inhibitory concentration (IC50) was less than 750 nM.

`CCCc1c(OCc2ccc([C@H](O)c3cccc(C(=O)O)c3)cc2)ccc(C(C)=O)c1O` [Example 155, 3-{[4-(4-acetyl-3-hydroxy-2-propyl-phenoxymethyl)-phenyl]-(S)-hydroxymethyl}-benzoic acid] registered a melting point of 198.35 °C.

With `CCCc1c(OCc2ccc(C(F)c3cccc(-c4nnn[nH]4)c3)cc2)ccc(C(C)=O)c1O` (single isomer, unassigned; isomer 1) [Example 81, 1-[4-(4-{Fluoro-[3-(1H-tetrazol-5-yl)-phenyl]-methyl}-benzyloxy)-2-hydroxy-3-propyl-phenyl]-ethanone isomer 1], the concentration for a half-maximal effect (EC50) on human mGlu2 receptors is less than 100 nM. Moreover, the concentration for half-maximal inhibition (IC50) on human CysLT1 receptor is less than 750 nM.

In the case of `CCCc1c(OCc2ccc(Cc3cccc(-c4nn[nH]n4)c3)cc2)ccc(C(C)=O)c1O` [Example 60, 1-(2-hydroxy-3-propyl-4-{4-[3-(1H-tetrazol-5-yl)-benzyl]-benzyloxy}-phenyl)-ethanone], the IC50 on human CysLT1 receptor was less than 750 nM.

As usually defined, the EC50 is the concentration at which the effect is half-maximal. Broadly, the IC50 is the concentration that inhibits the measured activity by half. A word on the melting point: it is the temperature of the solid-liquid transition.
